Experimental data from patent publication US8859573B2, “Pyrimidinone and pyridinone compounds for use in the treatment of diseases or conditions mediated by Lp-PLA2” (Glaxo Group Limited, priority 2010, dated 2014).
Counter-ions that a name gives are not always drawn.

What was measured:
[1] = biological target: T1, recombinant human Lp-PLA2 (Homo sapiens, UniProt Q13093); test: Recombinant human Lp-PLA2 assay (rhLp-PLA2, PED6 assay); assay type: biochemical; conditions: upper limit for pIC50 in this assay is 9.3
T1 sequence (Q13093 22-441): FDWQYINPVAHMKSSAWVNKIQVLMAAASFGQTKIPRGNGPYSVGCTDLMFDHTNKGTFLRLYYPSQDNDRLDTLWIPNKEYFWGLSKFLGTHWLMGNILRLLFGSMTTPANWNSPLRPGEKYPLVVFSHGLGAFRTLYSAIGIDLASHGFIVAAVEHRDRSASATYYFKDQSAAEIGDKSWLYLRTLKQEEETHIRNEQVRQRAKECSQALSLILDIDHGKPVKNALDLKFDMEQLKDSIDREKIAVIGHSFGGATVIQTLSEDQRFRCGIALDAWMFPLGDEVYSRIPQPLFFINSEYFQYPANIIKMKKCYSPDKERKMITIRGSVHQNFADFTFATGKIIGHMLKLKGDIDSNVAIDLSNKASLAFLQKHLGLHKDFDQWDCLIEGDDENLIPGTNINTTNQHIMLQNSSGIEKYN
Description: (1) Recombinant Human Lp-PLA2 Assay (rhLp-PLA2) (Also Referred to as “PED6” Assay)
N-((6-(2,4-dinitrophenyl)amino)-hexanoyl)-2-(4,4-difluoro-5,7-dimethyl-4-bora-3a,4a-diaza-s-indacene-3-pentanoyl)-1-hexadecanoyl-sn-glycero-3-phosphoethanolamine, triethylammonium salt (PED6) is a commercially available fluorescently-labelled phospholipid, which is commercially available from Molecular Probes. There is a quenching para-nitro phenyl (PNP) group in the sn3 position and a Bodipy fluorescein (FL) group in the sn2 position. Upon cleavage with Lp-PLA2, the Bodipy F1 group is liberated and then may result in an increase in fluorescence. Inhibitors of Lp-PLA2 therefore prevent this cleavage and no fluorescent increase is observed.
The PED6 assay was run as an […] 10 μL assay. Compounds source plate was prepared by making 1:3 (by volume) serial dilution of the compounds into pure DMSO on 384-well microplate. Then, 0.01 μL of compounds on compound source plate were transferred into 384 well Greiner 784076 (black) plates by ECHO liquid dispenser. 5 μL of recombinant human Lp-PLA2 enzyme (2 nM rhLp-PLA2 in assay buffer of 50 mM HEPES, pH7.4, 150 mM NaCl, 1 mM CHAPS) was added to each well of the plate with compounds. Plates were centrifuged for 10 sec at 500 rpm. After 30 minutes preincubation, […] substrate (4 μM PED6 [from 5 mM DMSO stock] in assay buffer of 50 mM HEPES, pH7.4, 150 mM NaCl, 1 mM CHAPS) was added to 384 well Greiner 784076 (black) plates. Plates were centrifuged for 10 sec at 500 rpm. Plate was covered to protect from light and incubated for 20 min at room temperature. Plates were read for fluorescence intensity at ex: 480/em: 540 using ViewLux microplate imager. PIC50 data, curve and QC analysis was conducted by using XL fit module in Excel.

[2] = biological target: T2, Lp-PLA2 from plasma (Homo sapiens, UniProt Q13093); test: Lp-PLA2 human plasma assay (Thio-PAF assay); assay type: biochemical; conditions: pooled human plasma; read-out: pIC50 values in the thio-PAF assay (converted)
T2 construct: from tissue; host or cells: pooled human plasma
T2 sequence (Q13093 22-441): T1 sequence (Q13093 22-441)
Description: (3) Lipoprotein-Associated Phospholipase A2 (Lp-PLA2) Human Plasma Assay (Also Referred to as “Thio-PAF Assay”)
The human plasma assay utilizes a thioester analog of PAF (phosphatidylcholine), where hydrolysis yields to the formation of a phospholipid containing a free thiol group. The amount of thiol is quantitated continuously by reacting with CPM (7-diethylamino-3-(4′-maleimidylphenyl)-4-methylcoumarin), a maleimide which increases in fluoresence after Michael addition of thiols. This assay may detect the activity of Lp-PLA2 from plasma, as determined by specific inhibition by Lp-PLA2 inhibitors.
The thio-PAF assay was run as a quenched 15 μL assay. Compounds source plate was prepared by making 1:3 (by volume) serial dilution of the compounds into pure DMSO on 384-well microplate. 0.01 μL of compounds on compound source plate were transferred to 384 well Greiner 784076 (black) low-volume plates by ECHO liquid dispenser. 8 μL pooled human plasma, which was previously aliquoted and frozen, was added. Plates were centrifuged for 10 sec at 500 rpm. After 30 minutes preincubation, 2 μL of substrate (2.5 mM thio-PAF, 3.2 mM NEM (N-ethylmaleimide) [made fresh daily in DMSO], and 32 μM CPM [from a DMSO stock] in assay buffer of 50 mM HEPES, pH7.4, 150 mM NaCl, 1 mM CHAPS was added to 384 well Greiner 784076 (black) low-volume plates by BRAVO liquid handling station. Plates were centrifuged for 10 sec at 500 rpm. Plate was covered to protect from light and incubated for 2 min at room temperature. Reaction was quenched with 5 μL of 5% aqueous trifluoroacetic acid (TFA). Plates were covered to protect from light and incubated for 40 min at room temperature. Plates were read at ex: 380/em: 485 using-Envision microplate reader. PIC50 data, curve and QC analysis was conducted by using XLFit module in Excel.

Structure (SMILES) | IC50 [1] | IC50 [2]
CCn1ccc(OCc2ccc(Oc3ccc(Cl)c(C(F)(F)F)c3)cc2)cc1=O [Example 23, 4-{[(4-{[4-Chloro-3-(trifluoromethyl)phenyl]oxy}phenyl)methyl]oxy}-1-ethyl-2(1H)-pyridinone] | > 10 nM | > 10000 nM
Cn1cc(Cn2ccc(OCc3ccc(Oc4cccc(C(F)(F)F)c4)cc3)cc2=O)cn1 [Example 25, 1-[(1-Methyl-1H-pyrazol-4-yl)methyl]-4-{[(4-{[3-(trifluoromethyl)phenyl]oxy}-phenyl)methyl]oxy}-2(1H)-pyridinone] | > 10 nM | –
O=c1cc(OCc2ccc(Oc3ccc(Cl)c(C(F)(F)F)c3)cc2)ccn1Cc1cncnc1 [Example 26, 4-{[(4-{[4-Chloro-3-(trifluoromethyl)phenyl]oxy}phenyl)methyl]oxy}-1-(5-pyrimidinylmethyl)-2(1H)-pyridinone] | > 10 nM | –
Cc1ccc(Oc2ccc(COc3ccn(Cc4cnn(C)c4)c(=O)c3)cc2)cc1F [Example 28, 4-[({4-[(3-Fluoro-4-methylphenyl)oxy]phenyl}methyl)oxy]-1-[(1-methyl-1H-pyrazol-4-yl)methyl]-2(1H)-pyridinone] | > 10 nM | –
COc1ncc(Cn2cc(Cl)c(OCCc3cnc(Oc4ccc(Cl)c(C(F)(F)F)c4)c(F)c3)nc2=O)cn1 [Example 32, 5-chloro-4-(2-(6-(4-chloro-3-(trifluoromethyl)phenoxy)-5-fluoropyridin-3-yl)ethoxy)-1-((2-methoxypyrimidin-5-yl)methyl)pyrimidin-2(1H)-one] | ≤ 1 nM | ≤ 100 nM
Cn1cc(Cn2cc(F)c(OCCc3ccc(Oc4ccc(Cl)c(C(F)(F)F)c4)cn3)nc2=O)cn1 [Example 55, 4-(2-(5-(4-chloro-3-(trifluoromethyl)phenoxy)pyridin-2-yl)ethoxy)-5-fluoro-1-((1-methyl-1H-pyrazol-4-yl)methyl)pyrimidin-2(1H)-one] | – | ≤ 100 nM
Cc1cccc(Oc2ccc(CCOc3nc(=O)n(Cc4cnn(C)c4)cc3F)cc2)n1 [Example 61, 5-fluoro-1-((1-methyl-1H-pyrazol-4-yl)methyl)-4-(4-((6-methylpyridin-2-yl)oxy)phenethoxy)pyrimidin-2(1H)-one] | > 10 nM | –
COc1ncc(Cn2cc(F)c(OCCc3ccc(Oc4cccc(C)n4)cc3)nc2=O)cn1 [Example 62, 5-fluoro-1-((2-methoxypyrimidin-5-yl)methyl)-4-(4-((6-methylpyridin-2-yl)oxy)phenethoxy)pyrimidin-2(1H)-one] | > 10 nM | –
CCn1cc(F)c(OCCc2ccc(Oc3cccc(C(F)(F)F)n3)cc2)nc1=O [Example 63, 1-ethyl-5-fluoro-4-(4-((6-(trifluoromethyl)pyridin-2-yl)oxy)phenethoxy)pyrimidin-2(1H)-one, trifluoroacetic acid salt] | > 10 nM | –
Cn1cc(Cn2cc(F)c(OCCc3ccc(Oc4cccc(C(F)(F)F)n4)cc3)nc2=O)cn1 [Example 64, 5-fluoro-1-((1-methyl-1H-pyrazol-4-yl)methyl)-4-(4-((6-(trifluoromethyl)pyridin-2-yl)oxy)phenethoxy)pyrimidin-2(1H)-one] | – | ≤ 1000 nM
COc1ncc(Cn2cc(F)c(OCCc3ccc(Oc4cccc(C(F)(F)F)n4)cc3)nc2=O)cn1 [Example 65, 5-fluoro-1-((2-methoxypyrimidin-5-yl)methyl)-4-(4-((6-(trifluoromethyl)pyridin-2-yl)oxy)phenethoxy)pyrimidin-2(1H)-one] | – | ≤ 1000 nM

More lines, now with the values ahead:

IC50 [1] | IC50 [2] | Structure (SMILES)
≤ 1 nM | ≤ 100 nM | N#Cc1cc(COc2ccn(Cc3cccnc3)c(=O)n2)ccc1Oc1ccc(Cl)c(C(F)(F)F)c1 [Example 4, 2-(4-Chloro-3-(trifluoromethyl)phenoxy)-5-(((2-oxo-1-(pyridin-3-ylmethyl)-1,2-dihydropyrimidin-4-yl)oxy)methyl)benzonitrile]
≤ 1 nM | ≤ 1000 nM | CCn1ccc(OCc2ccc(Oc3ccc(Cl)c(C(F)(F)F)c3)c(C#N)c2)nc1=O [Example 5, 2-{[4-Chloro-3-(trifluoromethyl)phenyl]oxy}-5-{[(1-ethyl-2-oxo-1,2-dihydro-4-pyrimidinyl)oxy]methyl}benzonitrile]
≤ 1 nM | ≤ 100 nM | Cn1cc(Cn2ccc(OCc3ccc(Oc4ccc(Cl)c(C(F)(F)F)c4)cc3)nc2=O)cn1 [Example 8, 4-{[(4-{[4-Chloro-3-(trifluoromethyl)phenyl]oxy}phenyl)methyl]oxy}-1-[(1-methyl-1H-pyrazol-4-yl)methyl]-2(1H)-pyrimidinone]
≤ 1 nM | ≤ 100 nM | O=c1nc(OCCc2ccc(Oc3ccc(Cl)c(C(F)(F)F)c3)cc2)ccn1Cc1ccncc1 [Example 9, 4-{[2-(4-{[4-Chloro-3-(trifluoromethyl)phenyl]oxy}phenyl)ethyl]oxy}-1-(4-pyridinylmethyl)-2(1H)-pyrimidinone]
≤ 1 nM | ≤ 100 nM | O=c1nc(OCCc2ccc(Oc3ccc(Cl)c(C(F)(F)F)c3)cc2)ccn1Cc1cccnc1 [Example 10, 4-{[2-(4-{[4-Chloro-3-(trifluoromethyl)phenyl]oxy}phenyl)ethyl]oxy}-1-(3-pyridinylmethyl)-2(1H)-pyrimidinone]
≤ 1 nM | ≤ 100 nM | O=c1nc(OCCc2ccc(Oc3ccc(Cl)c(C(F)(F)F)c3)cc2)ccn1Cc1cncnc1 [Example 11, 4-{[2-(4-{[4-Chloro-3-(trifluoromethyl)phenyl]oxy}phenyl)ethyl]oxy}-1-(5-pyrimidinylmethyl)-2(1H)-pyrimidinone]
≤ 1 nM | ≤ 100 nM | Cn1cc(Cn2ccc(OCCc3ccc(Oc4ccc(Cl)c(C(F)(F)F)c4)cc3)nc2=O)cn1 [Example 12, 4-{[2-(4-{[4-Chloro-3-(trifluoromethyl)phenyl]oxy}phenyl)ethyl]oxy}-1-[(1-methyl-1H-pyrazol-4-yl)methyl]-2(1H)-pyrimidinone]
≤ 1 nM | ≤ 100 nM | Cn1cc(Cn2ccc(OCc3cnc(Oc4ccc(Cl)c(C(F)(F)F)c4)c(F)c3)nc2=O)cn1 [Example 17, 4-{[(6-{[4-Chloro-3-(trifluoromethyl)phenyl]oxy}-5-fluoro-3-pyridinyl)methyl]oxy}-1-[(1-methyl-1H-pyrazol-4-yl)methyl]-2 (1H)-pyrimidinone]
≤ 1 nM | ≤ 100 nM | Cn1cc(Cn2ccc(OCCc3cnc(Oc4ccc(Cl)c(C(F)(F)F)c4)c(F)c3)nc2=O)cn1 [Example 18, 4-{[2-(6-{[4-Chloro-3-(trifluoromethyl)phenyl]oxy}-5-fluoro-3-pyridinyl)ethyl]oxy}-1-[(1-methyl-1H-pyrazol-4-yl)methyl]-2(1H)-pyrimidinone]
≤ 1 nM | ≤ 100 nM | Cn1cc(Cn2cc(Cl)c(OCCc3cnc(Oc4ccc(Cl)c(C(F)(F)F)c4)c(F)c3)nc2=O)cn1 [Example 31, 5-Chloro-4-(2-(6-(4-chloro-3-(trifluoromethyl)phenoxy)-5-fluoropyridin-3-yl)ethoxy)-1-((1-methyl-1H-pyrazol-4-yl)methyl)pyrimidin-2(1H)-one]
